Patent US11040976B2, “Substrate selective inhibitors of insulin-degrading enzyme (IDE) and uses thereof” (President and Fellows of Harvard College, priority 2015, dated 2021)

How the values were obtained:
human IDE Ala479Leu = target: T1, human IDE Ala479Leu (Homo sapiens, UniProt P14735, A479L); test: Activity assay of mutant human IDE variant A479L with IDE inhibitors; assay type: biochemical
T1 construct: N-His6-tagged human IDE42-1019 construct was introduced in the expression plasmid pTrcHis-A; His6 (N); made in house; host or cells: E. coli Rosetta 2 (DE3) pLysS
T1 sequence (P14735 42-1019 A479L): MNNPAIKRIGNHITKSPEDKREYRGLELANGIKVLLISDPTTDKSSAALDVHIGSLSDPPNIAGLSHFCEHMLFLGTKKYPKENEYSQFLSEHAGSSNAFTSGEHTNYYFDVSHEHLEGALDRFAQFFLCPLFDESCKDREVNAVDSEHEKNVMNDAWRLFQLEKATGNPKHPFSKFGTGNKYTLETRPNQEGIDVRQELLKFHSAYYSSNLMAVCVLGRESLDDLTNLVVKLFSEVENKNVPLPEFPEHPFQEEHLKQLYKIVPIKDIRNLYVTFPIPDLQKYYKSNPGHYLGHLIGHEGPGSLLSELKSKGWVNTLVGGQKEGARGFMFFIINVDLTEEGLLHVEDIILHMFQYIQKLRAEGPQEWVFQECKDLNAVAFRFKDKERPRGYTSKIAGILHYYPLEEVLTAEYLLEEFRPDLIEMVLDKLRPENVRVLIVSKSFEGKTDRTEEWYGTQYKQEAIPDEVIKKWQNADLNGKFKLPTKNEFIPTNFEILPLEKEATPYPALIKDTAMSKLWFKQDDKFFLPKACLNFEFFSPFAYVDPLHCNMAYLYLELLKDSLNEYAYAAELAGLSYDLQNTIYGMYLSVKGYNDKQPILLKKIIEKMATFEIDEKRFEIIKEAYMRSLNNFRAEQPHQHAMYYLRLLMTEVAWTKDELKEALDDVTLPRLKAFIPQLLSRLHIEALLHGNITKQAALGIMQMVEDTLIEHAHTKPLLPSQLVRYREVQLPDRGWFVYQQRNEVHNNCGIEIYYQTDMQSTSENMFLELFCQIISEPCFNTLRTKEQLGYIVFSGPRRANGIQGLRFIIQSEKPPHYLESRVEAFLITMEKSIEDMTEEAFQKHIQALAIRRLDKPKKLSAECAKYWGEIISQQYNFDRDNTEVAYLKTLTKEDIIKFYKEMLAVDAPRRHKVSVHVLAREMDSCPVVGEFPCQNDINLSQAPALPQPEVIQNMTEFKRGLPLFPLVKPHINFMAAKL
Excerpt: (§1) N-His6-tagged human IDE42-1019 construct was introduced in the expression plasmid pTrcHis-A (Invitrogen) using primers for uracil-specific excision reactions (USER) by Taq (NEB) and Pfu polymerases (PfuTurbo CX®, Agilent), as described in more detail in Maianti et al. (Nature (2014), 511, 94-98), which is incorporated by reference herein. The IDE gene was amplified with the primers 5′-[…]-dU-[…] (SEQ ID NO: 26) and 5′-[…] G-dU-[…] (SEQ ID NO: 27) (underlined sequences represent overhangs, and italics highlight the PCR priming sequence). Similarly, the pTrcHis-A vector was amplified for USER cloning with the primers 5′-[…]-dU-[…] (SEQ ID NO: 28) and 5′-[…]-dU-[…] (SEQ ID NO: 29). Mutant IDE constructs were generated by amplifying the full vector construct with USER cloning primers introducing a mutant overhang (see Table E6).
(§2) Recombinant His6-tagged proteins were purified by Ni(II)-affinity chromatography (IMAC sepharose beads, GE Healthcare®) according to the manufacturer's instructions. The cell pellets were re-suspended in pH 8.0 buffer containing 50 mM phosphate, 300 mM NaCl, 10 mM imidazole, 1% Triton X-100 and 1 mM tris(2-carboxyethyl)phosphine hydrochloride (TCEP), and were lysed by probe sonication for 4 minutes at <4° C., followed by clearing of cell debris by centrifugation at 10,000 g for 25 minutes at 4° C. […]

[1] = system: human IDE Val360Gln and Tyr314Phe; test: Activity assay of mutant human IDE variants Val360Gln and Tyr314Phe with IDE inhibitors; assay type: biochemical
Excerpt: as §1, §2

Structure (SMILES)	effect of Ala479Leu mutation on inhibition of IDE (human IDE Ala479Leu)	effect of variants Val360Gln and Tyr314Phe on potency [1]
NCCCC[C@@H]1NC(=O)/C=C/C(=O)N[C@H](C(N)=O)CCCCNC(=O)[C@@H](Cc2ccc(C(=O)c3ccccc3)cc2)NC(=O)[C@H](CC2CCCCC2)NC1=O [6bK, reference compound]	blocks 6bK from inhibiting IDE	–
Cc1cccc(-c2ccc([C@@H]3[C@@H](CO)N4CCCCN(S(=O)(=O)c5ccccc5C)C[C@@H]34)cc2)c1 [compound 297]	–	minor impacts on potency
